This is an account of results in patent US7138361B2, “Herbicidal heterocycles” (E. I. du Pont de Nemours and Company, priority 2000, dated 2006).

What all share (type): in vivo
Experiment [1] relates to barnyardgrass (Echinochloa crus-galli). The experiment in a line: Test C flooded paddy test. Particulars: for Barnyardgrass plant response rating: scale 0 to 100, 0 no effect, 100 complete control. An outline of the steps: (§1)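 Each species was cultivated to 2 leaves in flooded paddy pots, then treated. After a greenhouse period of 12–14 days, the plants were scored visually relative to controls from 0 (no effect) to 100 (complete control).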

In experiment [2] the test system is rice (Oryza saliva). Briefly: Test C flooded paddy test. The conditions noted are these: for Rice plant response rating: scale 0 to 100, 0 no effect, 100 complete control. The method in brief: as §1
For experiment [3], the system named is duck salad (Heteranthera limosa). Briefly: Test C flooded paddy test. Particulars: for Ducksalad plant response rating: scale 0 to 100, 0 no effect, 100 complete control. The method in brief: as §1
Experiment [4] relates to smallflower flatsedge (Cyperus difformis). Briefly: Test B flooded paddy test. Particulars: Rate 1000 g/ha, scale of 0 to 100 where 0 is no effect and 100 is complete control, visually evaluated after 13 to 15 days. The method in brief:
(§2)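 2-leaf plants, flooded paddy; greenhouse 13–15 d post-treatment; visual rating vs controls, 0–100 scale (0 = no effect, 100 = complete control); dash = no result.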

Experiment [5] concerns barnyardgrass (Echinochloa crus-galli). The experiment in a line: Test B flooded paddy test. Particulars: Rate 1000 g/ha, scale of 0 to 100 where 0 is no effect and 100 is complete control, visually evaluated after 13 to 15 days. The method in brief: as §2
Experiment [6] has as its system rice (Oryza saliva). Briefly: Test B flooded paddy test. The conditions noted are these: Rate 1000 g/ha, scale of 0 to 100 where 0 is no effect and 100 is complete control, visually evaluated after 13 to 15 days. An outline of the steps: as §2
Experiment [7] deals with duck salad (Heteranthera limosa). The experiment in a line: Test B flooded paddy test. The conditions noted are these: Rate 1000 g/ha, scale of 0 to 100 where 0 is no effect and 100 is complete control, visually evaluated after 13 to 15 days. The method in brief: as §2
Setting [8] is: flooded paddy test, Rate 62 g/ha, scale 0 to 100 (0 no effect, 100 complete control).
[9] abbreviates: flooded paddy test, Rate 125 g/ha, scale 0 to 100 (0 no effect, 100 complete control).
[10] abbreviates: Flooded Paddy, Rate 500 g/ha, scale 0 to 100.
[11] abbreviates: Flooded Paddy, Rate 1000 g/ha, scale 0 to 100.

Take `O=C1C(n2ccc(C3CCCCC3)n2)SCN1c1cccc(C(F)(F)F)c1` (centres unmarked) [Compound 52]: the “Barnyardgrass plant response rating” value is on record as 70 in experiment [1] (Flooded Paddy, Rate 250 g/ha) and 100 in experiment [1] (Flooded Paddy, Rate 500 g/ha). The figures for the “Plant response rating, Barnyardgrass” value in experiment [1] (setting [8]), in experiment [1] (setting [9]) and in experiment [5] were 30, 60 and 100, respectively. For the same compound, the “Rice plant response rating” value in experiment [2] (Flooded Paddy, Rate 250 g/ha) was 0; in experiment [2] (Flooded Paddy, Rate 500 g/ha), 60. For the same compound, the figures for the “Plant response rating, Rice” value in experiment [2] (setting [8]), in experiment [2] (setting [9]) and in experiment [6] were 0, 0 and 50, respectively. Further, the “Ducksalad plant response rating” value in experiment [3] (Flooded Paddy, Rate 250 g/ha) is 40; in experiment [3] (Flooded Paddy, Rate 500 g/ha) it was 100. Besides, the “Plant response rating, Ducksalad” value is 20 in experiment [3] (setting [8]) and 100 in experiment [7]. Besides, the “Plant response rating, Flatsedge” value in experiment [4] worked out at 100.
For `CC(C)(C)c1ccn(C2CCN(c3ccc(Cl)c(Br)c3)C2=O)n1` (centres unmarked) [Compound 56], the “Barnyardgrass plant response rating” value in experiment [1] (Flooded Paddy, Rate 250 g/ha) came out at 30; in experiment [1] (Flooded Paddy, Rate 500 g/ha), 30. Besides, the “Plant response rating, Barnyardgrass” value is recorded as 0 in experiment [1] (setting [8]), 30 in experiment [1] (setting [9]) and 80 in experiment [5]. The “Rice plant response rating” value was 0 in experiment [2] (Flooded Paddy, Rate 250 g/ha) and 0 in experiment [2] (Flooded Paddy, Rate 500 g/ha). For the same compound, the “Plant response rating, Rice” value in experiment [2] (setting [8]), in experiment [2] (setting [9]) and in experiment [6] was 0 each time. Also, the “Ducksalad plant response rating” value in experiment [3] (Flooded Paddy, Rate 250 g/ha) was determined as 0; in experiment [3] (Flooded Paddy, Rate 500 g/ha), 0. In addition, the “Plant response rating, Ducksalad” value in experiment [3] (setting [8]) stood at 0; in experiment [3] (setting [9]) it was 0; in experiment [7], 20. Moreover, in experiment [4], the “Plant response rating, Flatsedge” value is 90.
In the case of `CC(C)(C)c1ccn(C2CCN(c3cccc(C(F)(F)F)c3)C2=O)n1` (centres unmarked) [Example 3, 3-[3-(1,1-dimethylethyl)-1H-pyrazol-1-yl]-1-[3-(trifluoromethyl)phenyl]-2-pyrrolidinone], the “Plant response rating, Barnyardgrass” value in experiment [1] (setting [10]) is recorded as 100; in experiment [1] (setting [11]), 100; in experiment [1] (setting [8]) it was 20; in experiment [1] (setting [9]), 80; in experiment [5] it was 100. Also, in experiment [1] (Flooded Paddy, Rate 250 g/ha), the “Barnyardgrass plant response rating” value is 100. In addition, the “Plant response rating, Rice” value in experiment [2] (setting [10]) is recorded as 60; in experiment [2] (setting [11]), 90; in experiment [2] (setting [8]), 0; in experiment [2] (setting [9]) it was 0; in experiment [6], 90. The “Rice plant response rating” value in experiment [2] (Flooded Paddy, Rate 250 g/ha) was determined as 50. Besides, the “Plant response rating, Ducksalad” value was determined as 90 in experiment [3] (setting [10]); 100 in experiment [3] (setting [11]); 20 in experiment [3] (setting [8]); 80 in experiment [3] (setting [9]); 100 in experiment [7]. Further, the “Ducksalad plant response rating” value in experiment [3] (Flooded Paddy, Rate 250 g/ha) came out at 80. Moreover, the “Plant response rating, Flatsedge” value in experiment [4] turned out to be 100.
